Data on 19 compounds can be found in ChEMBL document CHEMBL1201862, “PubChem BioAssay data set” (2004).

One experiment has as its target Mu-type opioid receptor (Homo sapiens, UniProt P35372). In kind it is functional, cell-based.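 Further: U2OS cells with beta-arrestin recruitment to OPRM1 by beta-gal complementation.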
In experiment [1] the target is 5-hydroxytryptamine receptor 2A (Mus musculus, UniProt P35363). In kind it is functional, cell-based.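 Further: CHO-K1 cells with tagged receptor and beta-arrestin; agonist potency measured as compound-induced activation of the receptor.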
Sequence of 5-hydroxytryptamine receptor 2A (P35363 whole entry): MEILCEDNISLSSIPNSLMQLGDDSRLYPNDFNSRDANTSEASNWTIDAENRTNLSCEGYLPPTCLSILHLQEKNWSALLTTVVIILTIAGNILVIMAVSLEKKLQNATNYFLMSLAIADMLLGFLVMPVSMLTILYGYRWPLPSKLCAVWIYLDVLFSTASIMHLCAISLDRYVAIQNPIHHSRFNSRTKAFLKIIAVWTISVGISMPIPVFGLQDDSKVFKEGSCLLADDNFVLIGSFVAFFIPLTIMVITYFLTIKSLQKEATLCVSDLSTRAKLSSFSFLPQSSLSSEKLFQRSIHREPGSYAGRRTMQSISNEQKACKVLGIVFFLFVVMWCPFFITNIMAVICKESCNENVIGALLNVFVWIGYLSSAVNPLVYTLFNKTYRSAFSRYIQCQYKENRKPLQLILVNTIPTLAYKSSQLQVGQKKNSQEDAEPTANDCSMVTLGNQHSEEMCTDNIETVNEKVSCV
Another experiment addresses Melanocortin receptor 4 (Homo sapiens, UniProt P32245). It is filed as functional, cell-based.
Experiment [2] deals with Potassium voltage-gated channel subfamily KQT member 2 (Rattus norvegicus, UniProt O88943). In words: KCNQ2 potassium channel inhibitors, dose response, cell-based, automated electrophysiology, set II, rat KCNQ2 (AID 588637). In kind it is functional.
Sequence of Potassium voltage-gated channel subfamily KQT member 2 (O88943 whole entry): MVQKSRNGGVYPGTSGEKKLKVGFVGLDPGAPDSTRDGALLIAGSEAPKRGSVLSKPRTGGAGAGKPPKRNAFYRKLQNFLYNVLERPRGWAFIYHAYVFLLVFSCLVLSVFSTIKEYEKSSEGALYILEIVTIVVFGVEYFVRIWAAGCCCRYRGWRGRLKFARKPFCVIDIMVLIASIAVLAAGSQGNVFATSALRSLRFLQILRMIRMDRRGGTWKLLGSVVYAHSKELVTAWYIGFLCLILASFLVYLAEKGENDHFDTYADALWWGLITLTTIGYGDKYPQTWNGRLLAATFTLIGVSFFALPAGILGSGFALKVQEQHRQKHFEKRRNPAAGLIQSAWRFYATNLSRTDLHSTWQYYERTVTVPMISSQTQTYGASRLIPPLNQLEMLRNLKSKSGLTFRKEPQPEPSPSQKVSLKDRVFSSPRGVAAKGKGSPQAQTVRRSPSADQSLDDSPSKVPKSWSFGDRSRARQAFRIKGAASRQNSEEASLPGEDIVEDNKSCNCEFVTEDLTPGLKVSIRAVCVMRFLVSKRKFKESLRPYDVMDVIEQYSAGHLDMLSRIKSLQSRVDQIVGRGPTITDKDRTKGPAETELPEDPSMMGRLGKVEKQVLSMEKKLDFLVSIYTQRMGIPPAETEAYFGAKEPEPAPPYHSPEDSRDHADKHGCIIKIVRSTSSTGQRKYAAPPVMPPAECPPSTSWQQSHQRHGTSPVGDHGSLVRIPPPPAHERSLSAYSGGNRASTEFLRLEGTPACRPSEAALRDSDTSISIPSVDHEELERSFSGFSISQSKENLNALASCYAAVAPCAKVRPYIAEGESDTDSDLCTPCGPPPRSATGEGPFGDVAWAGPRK
In experiment [3] the target is T1, Kappa-type opioid receptor (Homo sapiens, UniProt P41145). It is filed as functional.
T1 sequence (P41145 whole entry): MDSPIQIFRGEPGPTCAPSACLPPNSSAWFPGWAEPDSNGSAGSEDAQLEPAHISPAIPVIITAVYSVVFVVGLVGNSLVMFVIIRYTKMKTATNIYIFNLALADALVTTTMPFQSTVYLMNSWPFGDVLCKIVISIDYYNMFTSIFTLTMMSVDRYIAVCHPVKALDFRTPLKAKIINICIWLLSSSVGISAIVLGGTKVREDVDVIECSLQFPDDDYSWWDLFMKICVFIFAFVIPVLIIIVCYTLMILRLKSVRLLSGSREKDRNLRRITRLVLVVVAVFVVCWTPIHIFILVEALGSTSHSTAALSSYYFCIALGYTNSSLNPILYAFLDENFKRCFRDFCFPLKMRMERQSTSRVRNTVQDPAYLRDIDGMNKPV
The target of experiment [4] is T1, Kappa-type opioid receptor. It is filed as functional. This is another data set of the same source.
A further experiment has as its target Beta-galactosidase (Escherichia coli, UniProt Q8VNN2). In kind it is functional.
A short description of experiment [5]: inhibitors of PGC1a acetylation in cells, dose response, cell-based, cherry-picked samples (AID 720514).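 Further: potency may reflect raised or lowered acetylation signal.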 It is filed as functional.
The target of experiment [6] is Voltage-dependent T-type calcium channel subunit alpha-1H (Homo sapiens, UniProt O95180). In kind it is functional.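 Further: channel activity triggered by adding a high calcium stimulation buffer.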
Experiment [7] concerns the target T2, Adenosylmethionine-8-amino-7-oxononanoate aminotransferase (Mycobacterium tuberculosis, UniProt P9WQ81).
T2 sequence (P9WQ81 whole entry): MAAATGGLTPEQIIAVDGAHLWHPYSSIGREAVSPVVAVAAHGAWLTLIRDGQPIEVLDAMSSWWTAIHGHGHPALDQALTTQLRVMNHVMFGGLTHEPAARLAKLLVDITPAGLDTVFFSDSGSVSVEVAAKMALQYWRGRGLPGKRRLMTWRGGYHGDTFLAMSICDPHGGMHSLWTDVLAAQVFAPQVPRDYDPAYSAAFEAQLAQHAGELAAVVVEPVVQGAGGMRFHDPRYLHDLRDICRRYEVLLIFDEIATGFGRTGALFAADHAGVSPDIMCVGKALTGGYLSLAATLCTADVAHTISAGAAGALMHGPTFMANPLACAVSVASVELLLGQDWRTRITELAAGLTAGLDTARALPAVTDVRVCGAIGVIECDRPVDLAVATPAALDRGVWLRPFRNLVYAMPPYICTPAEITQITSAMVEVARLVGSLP
The experiment can be described thus: Mycobacterium tuberculosis BioA enzyme inhibitor Measured in Biochemical System Using Plate Reader - 2163-02_Inhibitor_Dose_CherryPick_Activity. It is filed as functional, Mycobacterium tuberculosis UT205.

Experiment [8] in a line: Luminescence Cell-Based Dose Retest to Confirm Inhibitors of Cancer Stem Cells. [Related pubchem assays (depositor defined):AID2717, AID2721]. As to conditions: Homo sapiens. In kind it is functional.
The nature of experiment [9]: HepG2 cell cytotoxicity, dose response, cytotoxicity control, plate reader, cherry-pick, antagonist series (AID 743416). It is filed as functional, cell-based.
The subject of a further experiment is INS1. In words: beta cell apoptosis inhibitors, cytokine rescue, dose response, luminescence, retest (AID 449756).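 Further: cell death triggered by IL-1 beta plus TNF-alpha plus IFN-gamma mixture; protective hits raise ATP signal compared with cytokine alone wells.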 Conditions: Rattus norvegicus. In kind it is functional, cell-based.
The nature of experiment [10]: HEK293 cell cytotoxicity, dose response, cytotoxicity control, plate reader, cherry-picked samples (AID 743446). In kind it is functional, cell-based.
The target of experiment [11] is T3, Low molecular weight phosphotyrosine protein phosphatase (Homo sapiens, UniProt P24666).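 Further: Dose-response confirmation assay measuring inhibition of LMPTP enzyme activity by fluorescence intensity read-out.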
T3 sequence (P24666 whole entry): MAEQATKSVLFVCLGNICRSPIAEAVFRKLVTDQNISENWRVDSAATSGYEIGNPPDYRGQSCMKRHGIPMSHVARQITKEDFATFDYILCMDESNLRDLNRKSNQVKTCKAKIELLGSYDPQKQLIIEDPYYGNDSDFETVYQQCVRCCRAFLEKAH
In kind it is functional. Conditions: read-out: IC50_Mean.

Experiment [12] in a line: LGR2 antagonists, dose response, cell-based, HEK293, CRE-luciferase reporter, cherry pick, set 2 (AID 743343).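 Further: transfected cells were stimulated with diluted bursicon conditioned medium after compound addition.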 It is filed as functional. A general note: Reporter assays use an easily measured gene product as a stand-in for the process of interest.
Experiment [13] is described as follows: A549 cell cytotoxicity, dose response, cytotoxicity control, plate reader, cherry-pick, antagonist series (AID 743412). In kind it is functional, cell-based.
Experiment [14] in a line: MC4R antagonists, dose response, counter-screen for LGR2 antagonist project, cell-based, plate reader, cherry pick (AID 743444).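 Further: transfected HEK 293 cells stimulated with alpha-MSH peptide; potency of inhibitors of the alpha-MSH evoked signal.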 In kind it is functional.
Experiment [15] relates to Vero. In words: cells. In kind it is functional, cell-based. Conditions: Chlorocebus sabaeus.
The subject of experiment [16] is Vero. The experiment can be described thus: cells. In kind it is functional. Conditions: Chlorocebus sabaeus.
The target in the next experiment is Fatty acid synthase (Homo sapiens, UniProt P49327). In words: FAS thioesterase domain inhibitors, dose response, biochemical, kinetic fluorescence intensity (AID 624326).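 Further: rate of fluorescence rise from hydrolysis of a fluorogenic O-methyl fluorescein ester substrate.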 In kind it is functional.
In experiment [17] the target is T4, Nuclear receptor subfamily 0 group B member 1 (Homo sapiens, UniProt P51843).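 Further: HEK293T cells transfected with SF-1 and DAX-1 plus StAR promoter luciferase reporter.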
T4 sequence (P51843 whole entry): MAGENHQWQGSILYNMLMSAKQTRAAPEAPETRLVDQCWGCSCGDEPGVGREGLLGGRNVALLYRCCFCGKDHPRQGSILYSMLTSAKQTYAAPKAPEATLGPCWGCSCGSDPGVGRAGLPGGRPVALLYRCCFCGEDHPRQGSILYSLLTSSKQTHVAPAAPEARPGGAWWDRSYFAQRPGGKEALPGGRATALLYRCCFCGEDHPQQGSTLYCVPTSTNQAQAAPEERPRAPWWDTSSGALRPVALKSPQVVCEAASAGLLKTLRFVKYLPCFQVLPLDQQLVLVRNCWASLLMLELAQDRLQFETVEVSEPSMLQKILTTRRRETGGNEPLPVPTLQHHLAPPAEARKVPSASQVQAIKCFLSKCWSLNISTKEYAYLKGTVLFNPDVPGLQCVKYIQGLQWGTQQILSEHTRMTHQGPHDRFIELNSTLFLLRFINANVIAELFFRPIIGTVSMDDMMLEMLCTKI
In kind it is functional, cell-based.

A further experiment can be described thus: cells. It is filed as functional, cell-based.
Experiment [18] addresses T5, DNA repair protein RAD52 homolog (Homo sapiens, UniProt P43351).
T5 sequence (P43351 whole entry): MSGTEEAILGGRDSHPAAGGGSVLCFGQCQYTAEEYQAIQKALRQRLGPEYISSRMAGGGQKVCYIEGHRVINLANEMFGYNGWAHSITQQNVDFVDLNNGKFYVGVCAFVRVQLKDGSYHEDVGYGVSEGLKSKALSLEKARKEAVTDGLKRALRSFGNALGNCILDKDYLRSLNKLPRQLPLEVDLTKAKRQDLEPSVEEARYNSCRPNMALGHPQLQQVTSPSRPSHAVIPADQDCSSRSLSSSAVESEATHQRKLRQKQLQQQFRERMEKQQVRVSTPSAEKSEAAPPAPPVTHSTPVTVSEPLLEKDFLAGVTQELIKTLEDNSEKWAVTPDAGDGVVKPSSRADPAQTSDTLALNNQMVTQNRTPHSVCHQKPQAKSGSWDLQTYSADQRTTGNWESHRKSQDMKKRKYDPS
It is filed as functional, biochemical.

Experiment [19] deals with T6, DNA repair and recombination protein RAD54-like (Homo sapiens, UniProt Q92698).
T6 sequence (Q92698 whole entry): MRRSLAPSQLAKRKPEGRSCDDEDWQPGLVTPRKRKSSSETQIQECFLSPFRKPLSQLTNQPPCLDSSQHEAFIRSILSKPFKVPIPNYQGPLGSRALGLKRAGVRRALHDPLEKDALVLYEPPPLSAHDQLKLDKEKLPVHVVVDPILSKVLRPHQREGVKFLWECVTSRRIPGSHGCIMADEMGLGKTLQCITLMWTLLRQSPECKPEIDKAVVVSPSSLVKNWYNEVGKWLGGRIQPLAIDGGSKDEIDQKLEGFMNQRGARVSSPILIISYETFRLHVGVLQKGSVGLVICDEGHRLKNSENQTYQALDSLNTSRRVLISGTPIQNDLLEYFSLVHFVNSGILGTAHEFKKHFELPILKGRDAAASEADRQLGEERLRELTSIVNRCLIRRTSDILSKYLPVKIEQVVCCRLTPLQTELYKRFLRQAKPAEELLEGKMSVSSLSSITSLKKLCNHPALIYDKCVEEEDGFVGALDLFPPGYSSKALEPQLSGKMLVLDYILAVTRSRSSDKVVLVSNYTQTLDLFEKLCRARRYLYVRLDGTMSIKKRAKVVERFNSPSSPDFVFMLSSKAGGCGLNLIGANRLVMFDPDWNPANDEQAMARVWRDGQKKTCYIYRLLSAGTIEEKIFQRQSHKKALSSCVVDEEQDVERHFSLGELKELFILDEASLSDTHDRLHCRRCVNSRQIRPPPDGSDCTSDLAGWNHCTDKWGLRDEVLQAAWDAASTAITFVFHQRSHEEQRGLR
The experiment can be described thus: inhibitors of human RAD54 branch migration, confirmation, biochemical, fluorescence, cherry-picked samples, dose series (AID 651657). It is filed as functional.

Molecules are shown by their SMILES. The source made the active and inactive calls. Some results are limits rather than exact numbers.

Sequence of Melanocortin receptor 4 (P32245 whole entry): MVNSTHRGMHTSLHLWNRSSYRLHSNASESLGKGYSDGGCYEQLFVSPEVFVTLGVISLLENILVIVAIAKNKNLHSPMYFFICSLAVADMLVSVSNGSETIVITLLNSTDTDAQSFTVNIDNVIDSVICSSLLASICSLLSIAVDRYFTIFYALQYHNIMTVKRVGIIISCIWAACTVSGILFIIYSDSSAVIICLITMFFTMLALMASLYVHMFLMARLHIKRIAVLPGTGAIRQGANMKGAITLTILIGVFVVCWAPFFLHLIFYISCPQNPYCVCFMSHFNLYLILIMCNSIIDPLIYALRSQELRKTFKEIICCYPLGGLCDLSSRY
Sequence of Mu-type opioid receptor (P35372 whole entry): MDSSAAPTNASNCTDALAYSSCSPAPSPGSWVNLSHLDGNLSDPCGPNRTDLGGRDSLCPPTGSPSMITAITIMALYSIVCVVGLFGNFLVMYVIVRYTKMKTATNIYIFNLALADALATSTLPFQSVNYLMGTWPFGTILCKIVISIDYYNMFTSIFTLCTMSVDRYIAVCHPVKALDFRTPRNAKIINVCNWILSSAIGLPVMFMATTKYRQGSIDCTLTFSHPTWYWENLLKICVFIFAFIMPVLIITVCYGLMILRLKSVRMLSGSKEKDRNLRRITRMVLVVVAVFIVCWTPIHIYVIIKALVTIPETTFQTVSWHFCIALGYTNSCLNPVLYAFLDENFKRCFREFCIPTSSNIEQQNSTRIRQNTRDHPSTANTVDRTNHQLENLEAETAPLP
Sequence of Beta-galactosidase (Q8VNN2 whole entry): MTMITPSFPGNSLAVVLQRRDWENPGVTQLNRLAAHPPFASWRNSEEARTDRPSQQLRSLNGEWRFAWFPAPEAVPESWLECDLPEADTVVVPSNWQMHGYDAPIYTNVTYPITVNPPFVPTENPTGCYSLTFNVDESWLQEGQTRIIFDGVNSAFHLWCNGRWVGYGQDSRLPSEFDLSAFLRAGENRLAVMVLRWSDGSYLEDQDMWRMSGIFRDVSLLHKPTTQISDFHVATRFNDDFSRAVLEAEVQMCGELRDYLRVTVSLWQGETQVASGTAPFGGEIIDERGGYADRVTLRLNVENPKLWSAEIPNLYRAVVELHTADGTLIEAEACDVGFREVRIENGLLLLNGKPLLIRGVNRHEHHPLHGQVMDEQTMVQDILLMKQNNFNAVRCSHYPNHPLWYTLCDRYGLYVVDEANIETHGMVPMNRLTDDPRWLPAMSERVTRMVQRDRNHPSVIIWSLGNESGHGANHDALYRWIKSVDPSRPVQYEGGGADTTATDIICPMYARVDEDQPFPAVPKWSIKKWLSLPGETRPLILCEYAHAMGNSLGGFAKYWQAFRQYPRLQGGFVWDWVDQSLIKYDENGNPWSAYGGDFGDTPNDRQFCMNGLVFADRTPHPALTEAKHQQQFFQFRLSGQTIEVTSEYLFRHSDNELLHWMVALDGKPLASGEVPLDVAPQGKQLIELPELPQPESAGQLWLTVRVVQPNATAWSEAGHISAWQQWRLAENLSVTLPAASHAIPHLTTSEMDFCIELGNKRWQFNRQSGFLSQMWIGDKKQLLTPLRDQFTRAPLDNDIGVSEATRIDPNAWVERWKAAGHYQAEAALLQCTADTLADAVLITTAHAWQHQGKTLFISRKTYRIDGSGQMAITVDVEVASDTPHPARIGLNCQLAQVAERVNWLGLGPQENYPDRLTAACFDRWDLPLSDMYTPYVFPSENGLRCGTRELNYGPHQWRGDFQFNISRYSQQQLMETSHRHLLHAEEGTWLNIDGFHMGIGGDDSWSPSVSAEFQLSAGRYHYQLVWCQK

The EC50 is the concentration that produces a half-maximal response. Take `Clc1ccccc1CN1CCN(c2ccccc2)CC1`: the EC50 was 92.5 µM (inactive) at Mu-type opioid receptor and 0.553 µM (active) in experiment [1].
`N#C/C(=C\c1cn(CCOc2ccccc2)c2ccccc12)C(=O)NCc1ccco1`: the EC50 at Melanocortin receptor 4 is > 89.2 µM (inactive).
Consider `Cn1c(C(=O)N2CCc3ccccc3C2)cc2oc3ccccc3c21`, for which the IC50 in [2] was 6.99 µM (active).
In the case of `CCSc1nnc(NC(=O)c2csc3c2CCCC3)s1`, on Melanocortin receptor 4, the EC50 was > 89.2 µM (inactive).
Usually AC50 stands for the concentration giving half of the maximal activity seen. `COc1ccc(-n2nc(C#N)c(Cl)cc2=O)cc1`: the IC50 in [3] is 14 µM; in experiment [4], 7.21 µM (active). At Beta-galactosidase, the EC50 was > 31.5 µM (inactive). Besides, the AC50 in experiment [5] was 3.52 µM (active).
As to `Cc1cccc(-c2nc(CN3CCCC(C(=O)NC4CCCCCC4)C3)c(C)o2)c1` (configuration not stated), the EC50 in [6] is 5.56 µM (active). Besides, the IC50 in [2] was 7.19 µM (active).
With `CC(=O)c1ccc(C(=O)N2CCCC(Nc3ccccc3)C2)s1` (configuration not stated), the AC50 in experiment [7] was 5.18 µM (active).
On to `O=C(Nc1ccc(Cl)cc1)Nc1nnc(-c2ccncc2)s1`, for which the AC50 is 1.17 µM (active) in experiment [8]; 5.88 µM (active) in experiment [9]; 3.54 µM (active) in the experiment with INS1; 2.98 µM (active) in experiment [10]; 3.51 µM (active) in experiment [12]; 15.5 µM (active) in experiment [13]. Further, the AC50 in experiment [14] is 1.74 µM (active). The IC50 in experiment [11] is 30.6 µM (inactive).
For orientation: CC50 means the concentration giving 50% cytotoxicity. As to `Cc1ccc(-n2ncc3c(SCc4ccccn4)ncnc32)c(C)c1`, in the experiment with Vero [15], the IC50 is 1.6 µM (active). Also, the CC50 in the experiment on Vero [16] is > 25 µM (active).
As for `Nc1n[nH]c(N2CCN(Cc3ccccc3)CC2)n1`, the EC50 was 92.5 µM (inactive) at Mu-type opioid receptor and 5.59 µM (active) in [1].
Take `O=C(CC(c1ccccc1)c1ccccc1)NCC(O)c1ccc([N+](=O)[O-])cc1` (configuration not stated): at Fatty acid synthase, the IC50 was 13.5 µM (active).
As to `Nc1nc(CN2CCN(c3ccccn3)CC2)nc(Nc2ccc(Cl)cc2)n1`, the EC50 is 92.5 µM (inactive) on Mu-type opioid receptor and 1.51 µM (active) in experiment [1].
With `COc1cccc(/C=C/C(=O)NNC(=O)c2ccccc2)c1OC`, the IC50 (in experiment [17]; in “cells”) was > 67.6 µM (inactive) each time.
Regarding `CC(=O)Nc1cc(-c2cccc(NS(C)(=O)=O)c2)cn2c(-c3ccccc3)cnc12`, on Melanocortin receptor 4, the EC50 was > 89.2 µM (inactive).
Regarding `OC[C@H]1O[C@H](c2nc(-c3nc(-c4cccs4)no3)cs2)C[C@@H]1O`, the IC50 (in [17]; in “cells”) was > 67.5 µM (inactive) each time.
For the compound `O=C(NCc1ccco1)c1ccc(-c2ccc3nccn3c2)cc1`, the AC50 in experiment [7] was 1.64 µM (active).
Take `O=C(c1ccc(C[S+]([O-])c2ccccc2Cl)o1)N1CCN(C2CCCCC2)CC1` (configuration not stated): the IC50 (in [17]; in “cells”) was > 67.5 µM (inactive) each time.
`COc1ccc(Cc2c(-c3ccc(OC)c(OC)c3)nc3c(C)cc(Br)cn23)c(C)c1`: the AC50 in experiment [7] was 6.62 µM (active); in experiment [18], 15.5 µM (active); in [19], 14.8 µM (active).
Consider `Cc1nn(-c2ccccc2)c(O)c1/C=N/N1C(=O)c2cccc3cccc(c23)C1=O`, for which the IC50 was more than 32 µM in experiment [3] and 10.3 µM (active) in experiment [4]. Also, in the experiment with Vero [16], the CC50 was > 25 µM (active). At Beta-galactosidase, the EC50 is > 31.5 µM (inactive).
